Measurements: PMC5701053, “Multicomponent mapping of boron chemotypes furnishes selective enzyme inhibitors” (Nature Communications, 2017)
pIC50: −log10 of the molar value.

Tests used:
[1] = molecular target: T1, α/β-hydrolase domain 3 (ABHD3) (Homo sapiens, UniProt Q8WU67); assay: competitive gel-based ABPP (FP-rhodamine) in HEK […] lysate overexpressing human ABHD3; also in situ (IC50 […]) and ABPP-SILAC in SW620 cells; type: biochemical
T1 sequence (Q8WU67 1-409): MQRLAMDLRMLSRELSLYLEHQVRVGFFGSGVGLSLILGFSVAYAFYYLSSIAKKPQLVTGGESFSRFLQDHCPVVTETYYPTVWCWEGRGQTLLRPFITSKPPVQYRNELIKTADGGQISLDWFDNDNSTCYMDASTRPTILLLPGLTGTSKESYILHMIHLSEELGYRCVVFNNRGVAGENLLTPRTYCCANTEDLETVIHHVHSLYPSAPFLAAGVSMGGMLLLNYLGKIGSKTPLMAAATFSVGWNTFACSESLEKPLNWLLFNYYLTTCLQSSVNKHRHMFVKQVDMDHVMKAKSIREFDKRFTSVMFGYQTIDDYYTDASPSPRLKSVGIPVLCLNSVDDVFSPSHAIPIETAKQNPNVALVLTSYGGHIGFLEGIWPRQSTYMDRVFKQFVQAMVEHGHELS

[2] = molecular target: T1, α/β-hydrolase domain 3 (ABHD3); assay: competitive gel-based ABPP (mouse brain proteome; follow-up in HEK […] lysates expressing ABHD3); type: cell-based

Row | Structure (SMILES) | pIC50 [1] | competitive gel-based ABPP (mouse brain proteome); follow-up in HEK 293T lysates [2]
1 | C[N+]12CC(=O)O[B-]1(CC(C#N)N(Cc1ccc(F)cc1Cl)C(=O)c1ccccc1)OC(=O)C2 (racemic) [4j] | 6.85 | 
2 | Cc1ccc(CN(C(=O)c2ccccc2)C(C#N)C[B-]23OC(=O)C[N+]2(C)CC(=O)O3)cc1 (stereo not drawn) [4g] |  | Compound 4j appears equipotent with compounds 4h and 4g against ABHD3, but is more selective against ABHD10.
3 | C[N+]12CC(=O)O[B-]1(CC(C#N)N(Cc1ccccc1Cl)C(=O)c1ccccc1)OC(=O)C2 (stereo not drawn) [4h] |  | Compound 4j appears equipotent with compounds 4h and 4g against ABHD3, but is more selective against ABHD10.
